Data from patent US20230203060A1 (GENFLEET THERAPEUTICS (SHANGHAI) INC., priority 2020, published 2023).

What was measured:
[1] = tested on: KRAS G12C mutant NCI-H358 cells; test: Cell proliferation inhibition experiment, 3D spheroid, CellTiter-Glo, NCI-H358; assay type: cell-based, human; settings: Homo sapiens, NCI-H358, 120 h, NCI-H358 (KRAS G12C mutant) 3D spheroid, 5 days with compound, CellTiter-Glo; read-out: H358 IC50
Method in brief: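 NCI-H358 (800 cells/well, RPMI-1640) and A549 (400 cells/well, F-12K) grown overnight as 3D spheroids in 2% FBS medium, then exposed 5 days to 3.16-fold compound dilutions at 0.1% DMSO. Viability measured by CellTiter-Glo luminescence; inhibition relative to DMSO and medium blank, IC50 from four-parameter fit.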

[2] = tested on: phosphorylated ERK downstream of KRAS G12C in MIA PaCa2 cells; test: Cell p-ERK detection experiment (HTRF) in MIA PaCa2; assay type: cell-based, human; settings: Homo sapiens, MIA PaCa-2, 2 h, MIA PaCa2 cells, 2 hours with compound, Advance ERK phospho-T202/Y204 HTRF kit; read-out: p-ERK IC50
Method in brief: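 KRAS G12C-mutant MIA PaCa2 cells (2.5E4 per well, overnight) exposed 2 h to a 3.16-fold compound dilution series at 0.1% DMSO. Lysates probed 4 h with HTRF antibodies to ERK phospho-T202/Y204; inhibition versus DMSO control and blank, IC50 by four-parameter fit.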

| SMILES | IC50 [1] | IC50 [2] |
| --- | --- | --- |
| C=CC(=O)N1CCN2C(=O)c3c(N4CC(N(C)CC(F)(F)F)CC4(C)C)nc(-c4ccccc4F)c(Cl)c3OC[C@H]2C1 (mixture of isomers) [Z491a, (6aR)-8-acryloyl-4-chloro-1-(2,2-dimethyl-4-(methyl(2,2,2-trifluoroethyl)amino)pyrrolidin-1-yl)-3-(2-fluorophenyl)-6,6a,7,8,9,10-hexahydro-12H-pyrazino[2,1-c]pyrido[3,4-f][1,4]oxazepin-12-one] | 2 nM | 37 nM |
| C=CC(=O)N1CCN2C(=O)c3c(N4C[C@@H](N5CCN(C)CC5)CC4(C)C)nc(-c4ccccc4F)c(Cl)c3OC[C@H]2C1 (single isomer, unassigned) [Z454-1] | 1.2 nM | 13 nM |
| C=CC(=O)N1CCN2C(=O)c3c(N4C[C@H](N5CCN(C)CC5)CC4(C)C)nc(-c4ccccc4F)c(Cl)c3OC[C@H]2C1 (single isomer, unassigned) [Z454-2] | 7.2 nM | 67 nM |
| C=CC(=O)N1CCN2C(=O)c3c(N4CCN(C)[C@@H](C)[C@H]4C)nc(-c4ccccc4F)c(Cl)c3OC[C@H]2C1 (single isomer, unassigned) [Z465-1] | 13 nM | 137 nM |
| C=CC(=O)N1CCN2C(=O)c3c(N4C[C@@H](N5CCN(C)CC5)CC4(C)C)nc(-c4c(O)cccc4F)c(Cl)c3OC[C@H]2C1 (single isomer, unassigned) [Z469-1] | 0.5 nM | 8 nM |
| C=CC(=O)N1CCN2C(=O)c3c(N4C[C@H](N5CCN(C)CC5)CC4(C)C)nc(-c4c(O)cccc4F)c(Cl)c3OC[C@H]2C1 (single isomer, unassigned) [Z469-2] | 2 nM | 30 nM |
| C=CC(=O)N1CCN2C(=O)c3c(N4C[C@@H](N5CCC5)CC4(C)C)nc(-c4ccccc4F)c(Cl)c3OC[C@H]2C1 (single isomer, unassigned) [Z471-1] | 7 nM | 188 nM |
| C=CC(=O)N1CCN2C(=O)c3c(N4C[C@H](N5CCC5)CC4(C)C)nc(-c4ccccc4F)c(Cl)c3OC[C@H]2C1 (single isomer, unassigned) [Z471-2] | 91 nM | 1080 nM |
| C=CC(=O)N1CCN2C(=O)c3c(N4C[C@@H](N(C)C)CC4(C)C)nc(-c4cccc(C)c4F)c(Cl)c3OC[C@H]2C1 (single isomer, unassigned) [Z472-1] | 16 nM | 189 nM |
| C=CC(=O)N1CCN2C(=O)c3c(N4C[C@H](N(C)C)CC4(C)C)nc(-c4cccc(C)c4F)c(Cl)c3OC[C@H]2C1 (single isomer, unassigned) [Z472-2] | 8 nM | 108 nM |
| C=CC(=O)N1CCN2C(=O)c3c(N4CC(N(C)C)CC4(C)C)nc(-c4cccc(F)c4F)c(Cl)c3OC[C@H]2C1 (single isomer, unassigned) [Z473-2] | 12 nM | 161 nM |
| C=CC(=O)N1CCN2C(=O)c3c(N4C[C@@H](N5CCN(C)CC5)CC4(C)C)nc(-c4ccccc4F)c(F)c3OC[C@H]2C1 (single isomer, unassigned) [Z474-1] | 8.3 nM | 64 nM |
| C=CC(=O)N1CCN2C(=O)c3c(N4C[C@@H](N(C)CC(F)(F)F)CC4(C)C)nc(-c4ccccc4F)c(Cl)c3OC[C@H]2C1 (single isomer, unassigned) [Z491] | 1.4 nM | 27 nM |
| C=CC(=O)N1CCN2C(=O)c3c(N4C[C@H](N5CC(C(F)(F)F)C5)CC4(C)C)nc(-c4ccccc4F)c(Cl)c3OC[C@H]2C1 (single isomer, unassigned) [Z608-1] | 99.5 nM | 1220 nM |
| C=CC(=O)N1CCN2C(=O)c3c(N4C[C@@H](N5CCN(C)CC5)CC4(C)C)nc(-c4c(F)cccc4Cl)c(Cl)c3OC[C@H]2C1 (single isomer, unassigned) [Z635-1] | 0.8 nM | 14 nM |
| C=CC(=O)N1CCN2C(=O)c3c(N4C[C@H](N5CCN(C)CC5)CC4(C)C)nc(-c4c(F)cccc4Cl)c(Cl)c3OC[C@H]2C1 (single isomer, unassigned) [Z635-2] | 7 nM | 55 nM |
| C=CC(=O)N1CCN2C(=O)c3c(N4C[C@H](N5CC(C#N)C5)CC4(C)C)nc(-c4ccccc4F)c(Cl)c3OC[C@H]2C1 (single isomer, unassigned) [Z637-1] | 125 nM | 1120 nM |
| C=CC(=O)N1CCN2C(=O)c3c(N4C[C@@H](N5CC(C#N)C5)CC4(C)C)nc(-c4ccccc4F)c(Cl)c3OC[C@H]2C1 (single isomer, unassigned) [Z637-2] | 4.5 nM | 68 nM |
| C=CC(=O)N1CCN2C(=O)c3c(N4C[C@@H](N(C)C)CC4(C)C)nc(-c4ccccc4)c(Cl)c3OC[C@H]2C1 (single isomer, unassigned) [Z655-1] | 38 nM | 461 nM |
| C=CC(=O)N1CCN2C(=O)c3c(N4C[C@@H](N(C)CCO)CC4(C)C)nc(-c4ccccc4F)c(Cl)c3OC[C@H]2C1 (single isomer, unassigned) [Z658-1] | 1 nM | 31 nM |
| C=CC(=O)N1CCN2C(=O)c3c(N4C[C@@H](N(C)CC(F)F)CC4(C)C)nc(-c4ccccc4F)c(Cl)c3OC[C@H]2C1 (single isomer, unassigned) [Z659-1] | 5 nM | 249 nM |
| C=CC(=O)N1CCN2C(=O)c3c(OC4CCCN(C)C4)nc(-c4c(O)cccc4F)c(Cl)c3OC[C@H]2C1 (stereo partly drawn) [Z43, (6aR)-8-acryloyl-4-chloro-3-(2-fluoro-6-hydroxyphenyl)-1-((1-methylpiperidin-3-yl)oxy)-6,6a,7,8,9,10-hexahydro-12H-pyrazino[2,1-c]pyrido[3,4-f][1,4]oxazepin-12-one] | 39 nM |  |
| C=CC(=O)N1CCN2C(=O)c3c(N4CCC[C@H]4C)nc(-c4c(O)cccc4F)c(Cl)c3OC[C@H]2C1 [Z48, (6aR)-8-acryloyl-1-((R)-2-methylpyrrolidin-1-yl)-4-chloro-3-(2-fluoro-6-hydroxyphenyl)-6,6a,7,8,9,10-hexahydro-12H-pyrazino[2,1-c]pyrido[3,4-f][1,4]oxazepin-12-one] | 15 nM |  |

More lines, in order of falling IC50 [1], values ahead:

| IC50 [1] | IC50 [2] | SMILES |
| --- | --- | --- |
| 906 nM |  | C=CC(=O)N1CCN2C(=O)c3c(N4CCN(C)C[C@@H]4C)nc(C#CC)c(Cl)c3OC[C@H]2C1 [Z459, (R)-8-acryloyl-4-chloro-1-((S)-2,4-dimethylpiperazin-1-yl)-3-(prop-1-yn-1-yl)-6,6a,7,8,9,10-hexahydro-12H-pyrazino[2,1-c]pyrido[3,4-f][1,4]oxazepin-12-one] |
| 281 nM | 1280 nM | C=CC(=O)N1CCN2C(=O)c3c(N4C[C@H](N5CC(F)(F)C5)CC4(C)C)nc(-c4ccccc4F)c(Cl)c3OC[C@H]2C1 (single isomer, unassigned) [Z525-1] |
| 189 nM | 3560 nM | C=CC(=O)N1CCN2C(=O)c3c(N4C[C@@H](C(=O)O)CC4(C)C)nc(-c4c(O)cccc4F)c(Cl)c3OC[C@H]2C1 (single isomer, unassigned) [Z458-1] |
| 62 nM |  | C=CC(=O)N1CCN2C(=O)c3c(N[C@H](C)c4ccccc4)nc(-c4c(O)cccc4F)c(Cl)c3OC[C@H]2C1 [Z28, (6aR)-8-acryloyl-4-chloro-3-(2-fluoro-6-hydroxyphenyl)-1-(((R)-1-phenylethyl)amino)-6,6a,7,8,9,10-hexahydro-12H-pyrazino[2,1-c]pyrido[3,4-f][1,4]oxazepin-12-one] |
| 27 nM | 433 nM | C=CC(=O)N1CCN2C(=O)c3c(N4C[C@H](N(C)CC(F)(F)F)CC4(C)C)nc(-c4ccccc4F)c(Cl)c3OC[C@H]2C1 (single isomer, unassigned) [Z493] |
| 24 nM |  | C=CC(=O)N1CCN2C(=O)c3c(N4CCN(C)C[C@@H]4C)nc(-c4ccccc4Cl)c(Cl)c3OC[C@H]2C1 [Z461, (R)-8-acryloyl-4-chloro-3-(2-chlorophenyl)-1-((S)-2,4-dimethylpiperazin-1-yl)-6,6a,7,8,9,10-hexahydro-12H-pyrazino[2,1-c]pyrido[3,4-f][1,4]oxazepin-12-one] |
| 21.7 nM | 305 nM | C=CC(=O)N1CCN2C(=O)c3c(N4C[C@@H](O)CC4(C)C)nc(-c4ccccc4F)c(F)c3OC[C@H]2C1 (single isomer, unassigned) [Z408-1] |
| 16.6 nM | 168 nM | C=CC(=O)N1CCN2C(=O)c3c(N4CC(N(C)C)CC4(C)C)nc(-c4ccccc4F)c(Cl)c3OC[C@H]2C1 (single isomer, unassigned) [Z453-2] |
| 13.1 nM | 141 nM | C=CC(=O)N1CCN2C(=O)c3c(N4CC(O)CC4(C)C)nc(-c4c(F)cccc4OC)c(F)c3OC[C@H]2C1 (single isomer, unassigned) [Z450] |
| 12 nM | 180 nM | C=CC(=O)N1CCN2C(=O)c3c(N4C[C@H](N(C)CCO)CC4(C)C)nc(-c4ccccc4F)c(Cl)c3OC[C@H]2C1 (single isomer, unassigned) [Z658-2] |
| 8 nM | 107 nM | C=CC(=O)N1CCN2C(=O)c3c(N4C[C@H](N(C)C)CC4(C)C)nc(-c4c(F)ccc(F)c4O)c(Cl)c3OC[C@H]2C1 (single isomer, unassigned) [Z475-2] |
| 7.8 nM | 226 nM | C=CC(=O)N1CCN2C(=O)c3c(N4C[C@@H](N5CC(F)(F)C5)CC4(C)C)nc(-c4ccccc4F)c(Cl)c3OC[C@H]2C1 (single isomer, unassigned) [Z525-2] |
| 4 nM | 73 nM | C=CC(=O)N1CCN2C(=O)c3c(N4C[C@H](N(C)CCOC)CC4(C)C)nc(-c4ccccc4F)c(Cl)c3OC[C@H]2C1 (single isomer, unassigned) [Z406-1] |
| 4 nM | 82 nM | C=CC(=O)N1CCN2C(=O)c3c(N4CC(N5CCOCC5)CC4(C)C)nc(-c4ccccc4F)c(Cl)c3OC[C@H]2C1 (single isomer, unassigned) [Z468-1] |
